Source: ChEMBL document CHEMBL5233228, “The cell division protein FtsZ as a cellular target to hit cystic fibrosis pathogens” (Eur J Med Chem, 2020)
Values after ≈ are worked out from the molar mass of the structure shown.

What was measured:
[1] = target: T1, Cell division protein FtsZ (Staphylococcus aureus) (UniProt P0A031); assay: Inhibition of Staphylococcus aureus recombinant FTsZ at 50 uM by GTPase activity assay relative to control
T1 sequence (whole entry): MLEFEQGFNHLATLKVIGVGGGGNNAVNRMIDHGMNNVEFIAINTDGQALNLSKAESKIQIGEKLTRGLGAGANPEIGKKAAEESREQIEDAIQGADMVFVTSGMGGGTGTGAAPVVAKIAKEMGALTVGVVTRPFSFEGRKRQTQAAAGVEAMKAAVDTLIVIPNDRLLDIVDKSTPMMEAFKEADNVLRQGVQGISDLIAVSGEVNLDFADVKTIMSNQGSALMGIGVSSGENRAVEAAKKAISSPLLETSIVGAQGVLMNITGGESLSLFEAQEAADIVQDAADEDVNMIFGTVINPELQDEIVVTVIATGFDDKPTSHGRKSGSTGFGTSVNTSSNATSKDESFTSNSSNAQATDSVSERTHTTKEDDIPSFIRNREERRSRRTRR

Staphylococcus aureus [2] = assay: Antibacterial activity against Meticillin-Resistant Staphylococcus aureus assessed as bacterial growth inhibtion; format: functional
Staphylococcus aureus [3] = assay: Antibacterial activity against Meticillin-Sensitive Staphylococcus aureus assessed as bacterial growth inhibtion; format: functional
[4] = Inhibition of FTsZ (unknown origin)
Staphylococcus aureus [5] = assay: Antibacterial activity against Meticillin-Sensitive Staphylococcus aureus assessed as bacterial growth inhibtion incubated for 18 hrs by broth microdilution method; format: functional
Staphylococcus aureus [6] = assay: Antibacterial activity against Meticillin-Resistant Staphylococcus aureus assessed as bacterial growth inhibtion incubated for 18 hrs by broth microdilution method; format: functional
[7] = target: T2, Cell division protein FtsZ (Staphylococcus aureus, UniProt P0A031); assay: Inhibition of Staphylococcus aureus recombinant FTsZ preincubated for 10 mins followed by compound addition measured after 30 mins by Cytophos phosphate assay
T2 sequence (P0A031 whole entry): T1 sequence (whole entry)

Staphylococcus aureus [8] = assay: Antibacterial activity against Staphylococcus aureus assessed as bacterial growth inhibition; format: functional
Escherichia coli = assay: Antibacterial activity against Escherichia coli assessed as bacterial growth inhibition; format: functional
Pseudomonas aeruginosa = assay: Antibacterial activity against Pseudomonas aeruginosa assessed as bacterial growth inhibition; format: functional
Macrococcus caseolyticus = assay: Antibacterial activity against Macrococcus caseolyticus assessed as bacterial growth inhibition; format: functional; conditions: Macrococcoides caseolyticum
Staphylococcus aureus [9] = assay: Antibacterial activity against Meticillin-Resistant Staphylococcus aureus assessed as bacterial growth inhibtion by resazurin colorimetric assay; format: functional
Burkholderia cepacia = assay: Antibacterial activity against Burkholderia cepacia assessed as bacterial growth inhibition by checkerboard assay; format: functional
Staphylococcus aureus [10] = assay: Antibacterial activity against Meticillin-Sensitive Staphylococcus aureus assessed as bacterial growth inhibtion by resazurin colorimetric assay; format: functional
Staphylococcus aureus [11] = assay: Antibacterial activity against Meticillin-Sensitive Staphylococcus aureus assessed as bacterial growth inhibtion incubated for 4 to 6 hrs by broth microdilution method; format: functional; conditions: time 4-6 hrs
Staphylococcus aureus [12] = assay: Antibacterial activity against Meticillin-Sensitive Staphylococcus aureus assessed as bacterial growth inhibtion incubated for 14 to 16 hrs; format: functional; conditions: time 14-16 hrs
Staphylococcus aureus [13] = assay: Antibacterial activity against Meticillin-Resistant Staphylococcus aureus assessed as bacterial growth inhibtion incubated for 14 to 16 hrs; format: functional; conditions: time 14-16 hrs
[14] = target: T3, Cell division protein FtsZ (Escherichia coli K-12, UniProt P0A9A6); assay: Inhibition of Escherichia coli recombinant FTsZ incubated for 10 mins in presence of GTP by spectrofluorimeter analysis
T3 sequence (P0A9A6 whole entry): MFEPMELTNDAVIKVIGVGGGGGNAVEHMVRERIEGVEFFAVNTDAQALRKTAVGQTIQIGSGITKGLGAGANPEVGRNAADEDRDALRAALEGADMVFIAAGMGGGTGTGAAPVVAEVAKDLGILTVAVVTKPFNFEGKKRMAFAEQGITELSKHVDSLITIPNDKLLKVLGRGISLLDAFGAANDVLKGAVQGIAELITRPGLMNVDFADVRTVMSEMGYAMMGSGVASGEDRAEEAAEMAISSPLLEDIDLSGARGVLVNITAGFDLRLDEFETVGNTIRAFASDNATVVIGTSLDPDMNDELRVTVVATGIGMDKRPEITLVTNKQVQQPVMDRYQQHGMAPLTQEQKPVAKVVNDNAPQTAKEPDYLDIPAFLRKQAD

Staphylococcus aureus [15] = assay: Antibacterial activity against Meticillin-Resistant Staphylococcus aureus assessed as bacterial growth inhibtion incubated for 24 hrs by broth microdilution method; format: functional
Staphylococcus aureus [16] = assay: Antibacterial activity against Meticillin-Sensitive Staphylococcus aureus assessed as bacterial growth inhibtion incubated for 24 hrs by broth microdilution method; format: functional

CCC(CC)c1cc(CCN2CCCN(Cc3ccc(C(F)(F)F)cc3)CC2)nc(-c2ccncc2)n1
inhibition [1]: 20%
MIC (Staphylococcus aureus [2]): 6 µg/mL (≈ 11.7 µM)
MIC (Staphylococcus aureus [3]): 3 µg/mL (≈ 5.86 µM)

NC(=O)c1c(F)ccc(OCc2nc3cc(Cl)cnc3s2)c1F
IC50 [4]: 0.055 µg/mL (≈ 0.155 µM)
MIC (Staphylococcus aureus [2]): 1 µg/mL (≈ 2.81 µM)
MIC (Staphylococcus aureus [3]): 1 µg/mL (≈ 2.81 µM)

Cc1ccc(/C=C/c2nc(/C=C3\Sc4ccccc4N3CCCN3CCC(C)CC3)c3ccccc3[n+]2C)cc1.[I-]
MIC (Staphylococcus aureus [5]): 2 µg/mL
MIC (Staphylococcus aureus [6]): 2 µg/mL

COc1ccc2cc3[n+](cc2c1OC)CCc1cc2c(cc1-3)OCO2 [BERBERINE]
IC50 [7]: 10 µM

Cc1n(Cc2ccc(Cl)cc2)c2ccccc2[n+]1Cc1ccc(Cl)cc1
MIC (Staphylococcus aureus [8]): 5 µg/mL
MIC (Escherichia coli): 5 µg/mL
MIC (Pseudomonas aeruginosa): 5 µg/mL
MIC (Macrococcus caseolyticus): 5 µg/mL
MIC (Staphylococcus aureus [3]): 5 µg/mL

COC(=O)CSc1ccc2nsnc2c1[N+](=O)[O-]
MIC (Staphylococcus aureus [9]): 2 µg/mL (≈ 7.01 µM)
MIC (Burkholderia cepacia): 8 µg/mL
MIC (Staphylococcus aureus [10]): 2 µg/mL (≈ 7.01 µM)

CCC(CC)c1cc([C@H]2CN3CC[C@H]2C[C@@H]3CN)nc(-c2ccncc2)n1
MIC (Staphylococcus aureus [11]): 24.6 µM (≈ 8.99 µg/mL)

CCC(CC)c1cc([C@H]2CN3CC[C@H]2C[C@@H]3CNCc2ccc(CO)o2)nc(-c2ccncc2)n1
IC50 [7]: 77.2 µM
MIC (Staphylococcus aureus [11]): 50.5 µM (≈ 24 µg/mL)

Cc1nc(-c2cccs2)cc([C@H]2CN3CC[C@H]2C[C@@H]3CNC(=O)CCCC(=O)O)n1
IC50 [7]: 317 µM
MIC (Staphylococcus aureus [11]): 897 µM (≈ 384 µg/mL)

Cc1n(Cc2ccccc2)c2ccccc2[n+]1Cc1ccc(Cl)c(Cl)c1
MIC (Staphylococcus aureus [8]): 5 µg/mL
MIC (Escherichia coli): 5 µg/mL
MIC (Pseudomonas aeruginosa): 5 µg/mL
MIC (Macrococcus caseolyticus): 5 µg/mL
MIC (Staphylococcus aureus [3]): 5 µg/mL

Cc1n(Cc2ccc(Cl)c(Cl)c2)c2ccccc2[n+]1Cc1ccc(Cl)c(Cl)c1
MIC (Staphylococcus aureus [8]): 5 µg/mL
MIC (Escherichia coli): 5 µg/mL
MIC (Pseudomonas aeruginosa): 5 µg/mL
MIC (Macrococcus caseolyticus): 5 µg/mL
MIC (Staphylococcus aureus [3]): 5 µg/mL

Cc1ccc(/C=C/c2nc(/C=C3\Sc4ccccc4N3C)c3ccccc3[n+]2C)cc1.[I-]
MIC (Staphylococcus aureus [5]): 2 µg/mL
MIC (Staphylococcus aureus [6]): 2 µg/mL

CCN(CC)CCNc1nc(/C=C/c2ccc(Cl)cc2)nc2cc3ccccc3cc12
MIC (Staphylococcus aureus [12]): 5 µg/mL (≈ 11.6 µM)
MIC (Staphylococcus aureus [13]): 10 µg/mL (≈ 23.2 µM)

C[n+]1cc2c3c(ccc2c2ccc4cc5c(cc4c21)OCO5)OCO3 [SANGUINARIUM]
IC50 [14]: 3 µM

CN(C)CNC(=O)c1c(F)ccc(OCc2nc3cc(Cl)ccc3s2)c1F
MIC (Staphylococcus aureus [15]): 0.5 µg/mL (≈ 1.21 µM)
MIC (Staphylococcus aureus [16]): 0.5 µg/mL (≈ 1.21 µM)

CCC(CC)c1cc([C@H]2CN3CC[C@H]2C[C@@H]3CNCc2ccco2)nc(-c2ccncc2)n1
IC50 [7]: 55.7 µM
MIC (Staphylococcus aureus [11]): 26.9 µM (≈ 12 µg/mL)

COc1ccc2cc3[n+](cc2c1OCCCOc1ccc(Cl)cc1)CCc1cc2c(cc1-3)OCO2.[Br-]
MIC (Staphylococcus aureus [5]): 2 µg/mL
MIC (Staphylococcus aureus [6]): 2 µg/mL
